Source: patent US10226464B2, “Small molecule NF-κB inhibitors” (ImmuneTarget, Inc., priority 2015, dated 2019)

How the values were obtained:
NF-κB = NF-κB GFP Assay (NFκB/Jurkat/GFP transcriptional reporter cell line); assay type: cell-based; details: Homo sapiens; NF-κB/Jurkat/GFP reporter cells, TNF-α 5 ng/ml, 24 hours; read-out: NF-KB GFP IC50
Procedure: NFκB/Jurkat/GFP transcriptional reporter cell line was obtained from SBI System Biosciences. NF-κB/Jurkat/GFP™ Reporter cells (5×10^5 cells) were plated at a concentration of 1 million cells/ml into each well of a 24-well plate. TNF-α (5 ng/ml) was added. Compounds were added via serial dilutions to corresponding wells. After 24 hours, 100 μl of the cells were transferred to a well of a Costar® UV plate (96 well, No lid, w/ UV Transparent Flat Bottom, Corning, N.Y., Cat#3635) and the intensity of GFP fluorescence was measured (Excitation 485+/−20, Emission 528+/−20) in a Synergy™ HT Multi-Detection Microplate Reader (BioTech, Winooski, Vt.). The intensities of GFP measured were plotted against the […].

c-Rel protein = c-Rel protein (Homo sapiens (Human), UniProt Q04864); assay: Electrophoretic Mobility Shift Assay (EMSA), Rel/NF-κB DNA binding inhibition; details: 10 nM c-Rel protein, phosphor-labeled CD28RE oligonucleotide
Chain of c-Rel protein (Q04864 whole entry): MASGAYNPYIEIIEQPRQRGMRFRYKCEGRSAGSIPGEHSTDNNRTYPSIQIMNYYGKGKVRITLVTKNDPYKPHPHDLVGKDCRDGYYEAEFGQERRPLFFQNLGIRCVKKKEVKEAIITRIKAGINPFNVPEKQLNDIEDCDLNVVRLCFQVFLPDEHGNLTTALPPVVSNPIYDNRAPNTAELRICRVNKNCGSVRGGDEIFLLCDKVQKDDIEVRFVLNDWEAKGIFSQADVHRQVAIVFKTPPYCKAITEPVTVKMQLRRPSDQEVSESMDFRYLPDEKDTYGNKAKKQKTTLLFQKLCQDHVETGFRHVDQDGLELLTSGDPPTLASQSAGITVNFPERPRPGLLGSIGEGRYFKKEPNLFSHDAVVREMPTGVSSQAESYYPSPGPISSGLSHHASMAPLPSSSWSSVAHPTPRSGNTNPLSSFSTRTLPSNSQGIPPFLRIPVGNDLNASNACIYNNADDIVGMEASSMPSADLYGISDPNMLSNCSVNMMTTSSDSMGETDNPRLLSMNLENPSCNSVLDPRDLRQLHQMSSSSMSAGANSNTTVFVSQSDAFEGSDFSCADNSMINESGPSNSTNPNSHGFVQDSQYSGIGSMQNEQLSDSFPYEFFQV
Procedure: Electrophoretic Mobility Shift Assay (EMSA)
DNA binding reaction (20 μL) was carried out in 1×DNA Binding Buffer (10 mM Tris, 40 mM NaCl, 1 mM EDTA, 4% glycerol) with 10 nM c-Rel protein and 0.5 ng phosphor-labeled CD28RE oligonucleotide for 10 minutes at room temperature in 96-well plates. Test compounds, in serial dilutions, were added into each well, and further incubated for 15 minutes before loading onto native 5% polyacrylamide gel. Electrophoresis proceeded for 2.5 hours at 160V. Radioactive signals were quantified using Phospho-Imager. IC50 of compounds of example 1 to 75 were determined by quantifying the intensity of Rel/NF-κB inhibition in EMSA using phospho-imager. An example of EMSA data of the present invention is shown for compound 6 in FIG. 2.

SMILES	IC50 (NF-κB) [µM]	IC50 (c-Rel protein) [µM]
CCCCCCCOc1ccc2cc3c(=O)[nH]c(=O)nc-3oc2c1F [Compound 52]	< 5	< 0.5
O=C(O)CCCCCOc1ccc2cc3c(=O)[nH]c(=O)nc-3oc2c1Cl [Compound 53, 6-((9-chloro-2,4-dioxo-3,4-dihydro-2H-chromeno[2,3-d]pyrimidin-8-yl)oxy)hexanoic acid]	< 20	< 5
O=C(O)CCCOc1ccc2cc3c(=O)[nH]c(=O)nc-3oc2c1Cl [Compound 55]	< 20	< 5
O=C(O)COc1ccc2cc3c(=O)[nH]c(=O)nc-3oc2c1Cl [Compound 56]	< 20	< 5
COC(=O)CCCCOc1ccc2cc3c(=O)[nH]c(=O)nc-3oc2c1Cl [Compound 57]	< 20	< 5
CC(=O)OCCCCCCOc1ccc2cc3c(=O)[nH]c(=O)nc-3oc2c1Cl [Compound 58]	< 20	< 5
CC(=O)OCCCOc1ccc2cc3c(=O)[nH]c(=O)nc-3oc2c1Cl [Compound 59]	< 20	< 5
CC(=O)OCCCCOc1ccc2cc3c(=O)[nH]c(=O)nc-3oc2c1Cl [Compound 60, 4-((9-chloro-2,4-dioxo-3,4-dihydro-2H-chromeno[2,3-d]pyrimidin-8-yl)oxy)butyl acetate]	< 20	< 5
COCCOCCOc1ccc2cc3c(=O)[nH]c(=O)nc-3oc2c1 [Compound 61, 8-(2-(2-methoxyethoxy)ethoxy)-2H-chromeno[2,3-d]pyrimidine-2,4(3H)-dione]	< 5	< 1
COCCOCCOc1ccc2cc3c(=O)[nH]c(=O)nc-3oc2c1Cl [Compound 62]	< 5	< 1
COCCOCCOc1ccc2cc3c(=O)[nH]c(=O)nc-3oc2c1F [Compound 63]	< 5	< 1
COCCOCCOc1cc2oc3nc(=O)[nH]c(=O)c-3cc2cc1Cl [Compound 64]	< 5	< 1
COCCOCCOc1cc2oc3nc(=O)[nH]c(=O)c-3cc2cc1F [Compound 65]	< 5	< 1
COCCCCOc1ccc2cc3c(=O)[nH]c(=O)nc-3oc2c1Cl [Compound 66, 9-chloro-8-(4-methoxybutoxy)-2H-chromeno[2,3-d]pyrimidine-2,4(3H)-dione]	< 5	< 1
COCCCCOc1ccc2cc3c(=O)[nH]c(=O)nc-3oc2c1 [Compound 67]	< 5	< 1
COCCCCOc1ccc2cc3c(=O)[nH]c(=O)nc-3oc2c1F [Compound 68]	< 5	< 1
COCCCCOc1cc2oc3nc(=O)[nH]c(=O)c-3cc2cc1Cl [Compound 69]	< 5	< 1
COCCCCOc1cc2oc3nc(=O)[nH]c(=O)c-3cc2cc1F [Compound 70]	< 5	< 1
COCCOCCCOc1ccc2cc3c(=O)[nH]c(=O)nc-3oc2c1 [Compound 71]	< 5	< 1
COCCOCCCOc1ccc2cc3c(=O)[nH]c(=O)nc-3oc2c1Cl [Compound 72]	< 5	< 1
COCCOCCCOc1ccc2cc3c(=O)[nH]c(=O)nc-3oc2c1F [Compound 73]	< 5	< 1
COCCOCCCOc1cc2oc3nc(=O)[nH]c(=O)c-3cc2cc1Cl [Compound 74]	< 5	< 1
COCCOCCCOc1cc2oc3nc(=O)[nH]c(=O)c-3cc2cc1F [Compound 75, 7-fluoro-8-(3-(2-methoxyethoxy)propoxy)-2H-chromeno[2,3-d]pyrimidine-2,4(3H)-dione]	< 5	< 1
